What was measured:
[1] = system: primary MEFs from wild type, Bcl-x^Plt20/Plt20 or Bcl-x^Plt16/Plt16 mice; assay: Viability of primary MEFs (PI exclusion) after cell death induction; format: cell-based, mouse
Description: FIG. 3 provides a representation of data showing that the Bcl-x^Plt20 and Bcl-x^Plt16 mutations destabilize the Bcl-xL protein (A) Location of the Plt20 and Plt16 mutations on Bcl-xL. The two mutations (in blue) are mapped on the 3-dimensional structure of mouse Bcl-xL (light gray) in complex with a Bim BH3 peptide (red) (1PQ1) (Liu et al. Immunity, 19:341-352, 2003). Y15 (Plt20) is partially solvent exposed, while I182 (Plt16) is completely buried, neither contributing to the BH3 binding groove of Bcl-xL. The structural depiction was prepared using PyMOL (DeLano, W. L. 2002 The PyMOL Molecular Graphics System; http://www.pymol.org). (B) The mutant proteins encoded by the Plt20 and Plt16 alleles of Bcl-x can still bind Bax and Bak. […] Data shown is representative of at least 2 cell lines of each genotype analyzed. […] The viability (determined by PI exclusion) of representative primary MEFs derived from wild type, Bcl-x^Plt20/Plt20 or Bcl-x^Plt16/Plt16 mice after exposure to 50 μg/mL cycloheximide for 0-30 h. […]
FIG. 8 is a graphical representation of data showing the sensitivity of cell lines derived from Bcl-x mutant mice to apoptosis. […] Viability was determined by PI uptake; data represent means±SD of representative cell lines. \-<1% viability. […]

Mcl-1 null MEF cells = assay: Assay of Mcl-1 null MEF cells (rescue from ABT-737-induced killing, CellTitre-Blue viability); format: cell-based, mouse; settings: positive control, 25 μM final; ABT-737 20 nM final
Method: In summary, cells are split on day one in order to have them at a confluency of 60-80% on day two. On day two, the cells are seeded out into assay plates at a density that will ensure they are not confluent by day four of the assay. The assay plates are incubated at room temperature for 20-60 minutes before being transferred to 37° C. so that edge effects are minimized. For the same reason, assay plates are never stacked on top of each other in the incubator. On day three the cells are treated first with either Q-VD or with WEHI library compound. The cells are incubated for a 2 hour period in the presence of the library compounds and are then treated with ABT-737. […] After four hours the level of resorufin is measured.
The protocol for day one was repeated up to the point where the cells were pelleted and the supernatant aspirated off. […] The cells were vortexed and then counted using a haemocytometer. The dilution necessary to achieve a density of 2×10^4 cells ml^−1 (1000 cells per well per 50 μl media) in the required volume was calculated and the dilution performed in 1% FCS FMA. […]
CellTitre-Blue™ was warmed to 37° C. and 10 μl was then added to each well of the assay plates using the Multidrop. The plates were returned to 37° C. for 4 hours before being loaded into the EnVision plate reader. […]

mouse platelets = assay: Ex vivo platelet assays, mouse platelets in culture (platelet counts, caspase immunoblotting); format: cell-based; settings: qVD.OPh 50 μM with ABT-737 1 μM
Method: (A) Expression of Bcl-2 family proteins in platelets. […] (C) ABT-737 triggers caspase activation in platelets. […] (F) Absence of Bak protects platelets against ABT-737.
Cell death was induced with ABT-737 (up to 5 μM, Abbott Laboratories (Oltersdorf et al., 2005 (supra)), etoposide (up to 100 μM, Pharmacia) or staurosporine (10 μM, Sigma); 50 μM qVD.OPh (Enzyme Systems) was also added in some experiments. Cell viability was determined by flow cytometry for cells that exclude propidium iodide or manual counting using a hemacytometer.
Other antibodies for immunoblotting were mouse monoclonal anti-Bcl-xL (2H12; BD), anti-Bcl-2 (clone 7; BD), anti-human Bcl-2 (Bcl-2-100), anti-actin (AC40; Sigma), anti-Bax (2D2 and 5B7; Sigma), anti-Mcl-1 (clone 22: BD); rat monoclonal anti-Mcl-1 (14C11; D Huang, unpublished), rabbit polyclonal anti-Bak (B5897: Sigma), anti-Mcl-1 (Rockland), anti-caspase-3 (585; gift of Y. Lazebnik), anti-cleaved p17 fragment of caspase-3 (AB3623; Chemicon), anti-gelsolin (gift of D Kwiatkowski) (Kothakota et al., Science, 278:294-298, 1997); hamster monoclonal anti-mouse Bcl-2 (3F11; BD). Secondary antibodies included HRP-conjugated anti-rat or anti-hamster IgG (SouthernBiotech), anti-mouse or anti-rabbit IgG (Chemicon), and anti-mouse IgG Fcγ chain specific antibody (Jackson ImmunoResearch). The proteins were detected using Enhanced ChemiLuminescence (ECL; GE Healthcare).
Platelets were counted manually in triplicate using a hemacytometer.

## CN[C@@H]1C[C@H]2O[C@@](C)([C@@H]1OC)n1c3ccccc3c3c4c(c5c6ccccc6n2c5c31)C(=O)NC4 [staurosporine]
[1]; staurosporine 10 μM, PI uptake
  sensitivity of wild-type, Bcl-x^Plt20/Plt20 or Bcl-x^Plt16/Plt16 MEFs to staurosporine: equally sensitive

## C[C@@H]1C[C@@H]([C@H](O)CC2CC(=O)NC(=O)C2)C(=O)[C@@H](C)C1 [cycloheximide]
[1]; 50 μg/mL cycloheximide for 0-30 h, PI exclusion
  viability of Bcl-x^Plt20 or Bcl-x^Plt16 MEFs after protein synthesis inhibition: susceptible

## CC(C)[C@H](NC(=O)c1ccc2ccccc2n1)C(=O)N[C@@H](CC(=O)O)C(=O)COc1c(F)cccc1F [qVD.OPh]
Mcl-1 null MEF cells
  rescue of Mcl-1^(-/-) cells from ABT-737-induced apoptosis: can be rescued
Mouse platelets
  effect of qVD.OPh on ABT-737-induced caspase-3 activation and gelsolin cleavage: partially blocked
Mouse platelets; counted after 1 h
  effect of qVD.OPh on the cytotoxic effect of ABT-737 on mouse platelets in culture: partially ameliorated
